# In patent US12350273B2, “Treatment of SMA” (Hoffmann-La Roche Inc., priority 2017, dated 2025):
# Legend:
# [1] = test system: FOXM1B/C transcript variants; assay: FOXM1B/C mRNA expression in human iPSCs (RT-qPCR); type: cell-based; details: 24 h
# Method: FIG. 5A-FIG. 5B: Effect of RO7034067 on FOXM1 mRNA expression levels in human and Cynomolgus monkey iPSCs • Cells were treated with RO7034067 for 24 hours, and FOXM1 B/C transcript variants were analyzed by RT-PCR. Data represent means±SEM of 3 repetitions and are expressed as fold change vs. controls. IC50 values are indicated. FIG. 5A. human iPSCs. FIG. 5B. Cynomolgus monkey iPSCs
# Human iPSCs (hIPS_Neo_Clone_1) were cultivated in mTeSR1 (Stem Cell Technologies) as standard medium and Cynomolgus monkey iPSCs (cips_54-1285_cFIB_Clone_8) in MT medium supplemented with 10 ng/ml ActivinA and 15 ng/ml FGF2.
# For gene expression profiling, stem cells were detached with Accutase (Stem Cell Technologies) and plated in 12 well plates coated with Matrigel (BD Biosciences) in the respective standard medium supplemented with 10 μM Rock inhibitor Y-27632 (Sigma-Aldrich). In order to obtain enough RNA, monkey stem cells were seeded at 15000 cells/cm2 and human stem cells were seeded at 40000 cells/cm2 24 h prior to treatment. Thereafter stem cells were treated for 24 h with serial dilutions (1:5) of test items in fresh, pre-warmed medium in a concentration range from 0.64 nM till ˜10 μM. To stop the experiment, cells were lysed in QiaGen's lysis buffer RLT with beta-mercaptoethanol.
# Human and Cynomolgus monkey mRNA expression was measured with customized primer and FAM fluorescently-labeled Universal Probe Library (UPL) probes from Roche or probes from Microsynth containing a 5′ FAM label and a 3′ terminal BlackHole Dark Quencher 1 (BHQ1). The sequences of the primer and FAM labeled probes are listed as follows:
# For quantitative Real-Time-PCR, cells cultivated in a 12 well plate and treated with Roche-compounds for 24 h were lysed in 500 ul/well of QiaGen's lysis buffer RLT with beta-mercaptoethanol. Total RNA was extracted with the RNeasy Mini kit combined with DNase treatment on a solid support. RNA integrity was controlled by using Nanodrop absorption spectroscopy and microfluidic capillary array electrophoresis profiles from an Agilent Bioanalyzer
# 2100. Between 300 ng to 800 ng of total RNA were reverse transcribed with oligo-dT primer and spiked MS2 RNA at 10 ng/uL final concentration using the Transcriptor First Strand cDNA Synthesis Kit (Roche Applied Science #04379012001) following the manufacturer's recommended protocol. The quantitative PCR was performed on a LightCycler 480 qPCR machine using 67.5 ng total RNA derived cDNA as input in a 20 μl mixture containing 1× LightCycler 480 Probes Master, 0.4 μM forward and reverse primers, and 0.2 μM FAM labeled hydrolysis probe. The temperature program consisted of pre-incubation at 95° C. for 10 min, followed by 50 cycles of amplification (95° C. for 10 s, 60° C. for 30 s, 72° C. for 5 s). Negative control reactions were conducted in the absence of cDNA template to confirm absence of cDNA contamination in the master mix. Measurements of Ct (cycle threshold)-values were performed for each sample-mRNA combination. Using the 2-ΔΔCt method (Livak K J et al. Method. Methods. 2001; 25(4):402-8), the data are presented as the fold change in gene expression normalized to an endogenous reference gene and relative to the untreated control. To derive individual ΔCt values, the Ct value for each target mRNA of each sample was normalized to the Ct value of the endogenous reference mRNA of GAPDH (glyceraldehyde-3-phosphate dehydrogenase). The […] was calculated by subtracting the ΔCt value of the vehicle-control group from the respective ΔCt value of each treatment group. Resultant expression ratios (2-ΔΔCt) mirrored treatment-related mRNA expression changes versus vehicle-controls. […] The model to derive the IC50 assumes that the dose response curves has a standard slope, equal to a Hill slope (or slope factor) of −1.0. Model equation: Y=Bottom+(Top-Bottom)/(1+10^((X-Log IC50))); with Y being the response data and X being log 10 concentrations in μM.
# Melanin binding in vitro = type: in vitro ADME
structure (smiles),measurement,setting,value
"Cc1cn2nc(-c3cc(=O)n4cc(N5CCNC6(CC6)C5)ccc4n3)cc(C)c2n1 [RO7034067, 7-(4,7-diazaspiro[2.5]octan-7-yl)-2-(2,8-dimethylimidazo[1,2-b]pyridazin-6-yl)pyrido[1,2-a]pyrimidin-4-one]",Mean FOXM1B/C relative mRNA expression (2^-ΔΔCt vs control),[1]; 0.64 nM,1.115
same,Mean FOXM1B/C relative mRNA expression (2^-ΔΔCt vs control),[1]; 3.2 nM,1.032
same,Mean FOXM1B/C relative mRNA expression (2^-ΔΔCt vs control),[1]; 16 nM,0.898
same,Mean FOXM1B/C relative mRNA expression (2^-ΔΔCt vs control),[1]; 80 nM,0.748
same,Mean FOXM1B/C relative mRNA expression (2^-ΔΔCt vs control),[1]; 400 nM,0.178
same,Mean FOXM1B/C relative mRNA expression (2^-ΔΔCt vs control),[1]; 2000 nM,0.185
same,Mean FOXM1B/C relative mRNA expression (2^-ΔΔCt vs control),[1]; 10000 nM,0.102
same,IC50,"[1]; iPSC, read-out: IC50 on expression levels of FOXM1B/C",114 nM
same,melanin binding,Melanin binding in vitro,high melanin binding
